Laboratory results taken from publication PMC8950151, “Synthesis and Evaluation of the Antifungal and Toxicological Activity of Nitrofuran Derivatives” (Pharmaceutics, 2022).
In brackets after ≈: the same amount, converted by molar mass. Like-named read-outs stand apart in the source and are kept apart here.

What was measured:
[1] = tested on: Trichophyton mentagrophytes (ATCC 11481); test: Susceptibility assay for dermatophytes (CLSI M38-A2, resazurin), MIC90; type: cell-based; conditions: T. mentagrophytes, 35 °C
[2] = tested on: A549 (ATCC CCL-185) lung epithelial cell line; test: Cytotoxicity assay in monolayer by resazurin colorimetric method; type: cell-based; conditions: Homo sapiens, A549 cells, 72 h
T. rubrum (ATCC 28289) [3] = test: Minimum fungicidal concentration (MFC); type: cell-based, Trichophyton rubrum; conditions: for MFC: Trichophyton rubrum, ATCC28289
in vitro = conditions: human
Candida species = test: Susceptibility test (CLSI M27-A3), MIC90, stated for Candida species together; type: cell-based; conditions: read-out: MIC90 against Candida species, Candida species (C. albicans, C. krusei, C. glabrata) taken together
[4] = tested on: Histoplasma capsulatum (G217-B/ATCC 26032); test: microbe, parasite or virus in culture; type: cell-based; conditions: ATCC26032, 144 h
[5] = tested on: Cryptococcus neoformans (H99/ATCC 208821); test: Minimum fungicidal concentration (MFC); type: cell-based; conditions: ATCC208821, C. neoformans
C. krusei (ATCC 6258) [6] = test: Minimum fungicidal concentration (MFC); type: cell-based, Candida krusei; conditions: Pichia kudriavzevii, ATCC6258
[7] = tested on: Trichophyton mentagrophytes (ATCC 11481); test: Minimum fungicidal concentration (MFC); type: cell-based; conditions: Trichophyton mentagrophytes, ATCC11481; T. mentagrophytes
[8] = tested on: Candida albicans (ATCC 90028); test: Susceptibility test (CLSI M27-A3 broth microdilution, resazurin readout), MIC90; type: cell-based; conditions: ATCC90028, C. albicans, 24 h, 37 °C
[9] = tested on: Histoplasma capsulatum (G217-B/ATCC 26032); test: microbe, parasite or virus in culture; type: cell-based; conditions: ATCC26032
[10] = tested on: Candida albicans (ATCC 90028); test: Minimum fungicidal concentration (MFC); type: cell-based; conditions: ATCC90028, C. albicans
in vivo = conditions: AU37 [glp-4 (bn2) I, sek-1 (km4) X], Caenorhabditis elegans, C. elegans larvae viability
Description: The experiments were carried out with the mutant strain (AU37 [glp-4 (bn2) I; […]]). The strain was maintained on plates containing nematode growth medium (NGM) seeded with Escherichia coli OP50 at 16 °C. The stage of synchronization of young adults at stage L4 was performed for the toxicity test. About 20 larvae were transferred to each well of 96-well plates containing 100 μL of a medium composed of 60% of 50 mM NaCl; 40% BHI broth; 10 mg/mL cholesterol in ethanol; 200 mg/mL ampicillin and 90 mg/mL kanamycin. Then, 100 μL of dilutions of nitrofuran derivatives (showing the best selectivity index against the fungal species) were added. […] Plates were incubated at 25 °C for 24 h. Survival was assessed by the mobility and shape of the nematode (stick-shaped larvae were considered dead, while sinusoidal larvae were considered alive) under an inverted optical microscope on 40× objective lenses.

C. glabrata (ATCC 90030) [11] = test: Susceptibility test (CLSI M27-A3 broth microdilution, resazurin readout), MIC90; type: cell-based, Candida glabrata; conditions: Nakaseomyces glabratus, ATCC90030, 24 h, 37 °C
C. glabrata (ATCC 90030) [12] = test: Minimum fungicidal concentration (MFC); type: cell-based, Candida glabrata; conditions: Nakaseomyces glabratus, ATCC90030; C. glabrata; read-out: MFC
[13] = tested on: Paracoccidioides brasiliensis (Pb 18); test: microbe, parasite or virus in culture; type: cell-based; conditions: for MFC: Paracoccidioides brasiliensis
T. rubrum (ATCC 28289) [14] = test: Susceptibility assay for dermatophytes (CLSI M38-A2, resazurin), MIC90; type: cell-based; conditions: Trichophyton rubrum, ATCC28289, 96 h, 35 °C
[15] = tested on: Cryptococcus neoformans (H99/ATCC 208821); test: Susceptibility test (CLSI M27-A3 broth microdilution, resazurin readout), MIC90; type: cell-based; conditions: ATCC208821, 48 h
C. krusei (ATCC 6258) [16] = test: as above; type: cell-based, Candida krusei; conditions: Pichia kudriavzevii, ATCC6258, 24 h
T. rubrum ATCC MYA-4438 = test: Quality control of dermatophyte susceptibility assay, MIC90; type: cell-based; conditions: Trichophyton rubrum; T. rubrum ATCC MYA-4438 control strain
Description: The experiments were performed according to CLSI […]-A2 [65] for dermatophytes, with minor modifications as described by Costa-Orlandi et al.. The fungal suspensions were adjusted by counting the conidia in the hematocytometer to reach a final concentration of 2.5 × 10^3 cells/mL in RPMI-1640 medium. This was added to the wells at the appropriate compound concentrations and incubated at 35 °C for 96 h with agitation (150 rpm). Visual and colorimetric readings were taken with the addition of 20 μL of 0.03% resazurin [61]. Quality control was performed using the strain of T. rubrum ATCC MYA-4438, with the drug TRB.

[17] = Trichophyton mentagrophytes, ATCC11481, 96 h, read-out: MIC90

Compound | MIC90 [1, 17] | IC50 [2] | MFC (T. rubrum (ATCC 28289) [3]) | IC50 (in vitro) | MIC90 [4] | MFC [5] | MFC (C. krusei (ATCC 6258) [6]) | MFC [7] | MIC90 [8] | MFC [9] | MFC [10] | viability at 24 h, 250 µg/mL (in vivo) | MIC90 (C. glabrata (ATCC 90030) [11]) | MFC (C. glabrata (ATCC 90030) [12]) | MFC [13] | MIC90 (T. rubrum (ATCC 28289) [14]) | MIC90 [15] | MIC90 (C. krusei (ATCC 6258) [16]) | melting point | also measured
O=C(/C=C/c1ccccc1)OCc1ccc([N+](=O)[O-])o1 [Compound 1] | 15.6 µg/mL (≈ 57.1 µM) | 250 µg/mL (≈ 915 µM) | > 250 µg/mL | 240 µg/mL (≈ 880 µM) | > 250 µg/mL | 31.2 µg/mL (≈ 114 µM) | 31.2 µg/mL (≈ 114 µM) | 15.6 µg/mL (≈ 57.1 µM) | 3.9 µg/mL (≈ 14.3 µM) | > 250 µg/mL | 125 µg/mL (≈ 457 µM) | > 94% | 7.81 µg/mL (≈ 28.6 µM) | > 250 µg/mL | 62.5 µg/mL (≈ 229 µM) | > 250 µg/mL | 31.2 µg/mL (≈ 114 µM) | 31.2 µg/mL (≈ 114 µM) | – | MIC90 (Candida species): 3.9 µg/mL (≈ 14.3 µM); fungistatic / fungicidal profile [13]: fungistatic profile
O=C(NCCCn1ccnc1)c1ccc([N+](=O)[O-])o1 [Compound 2, N-(3-(1H-imidazol-1-yl)propyl)-5-nitrofuran-2-carboxamide] | 125 µg/mL (≈ 473 µM) | 49.1 µg/mL (≈ 186 µM) | > 250 µg/mL | 90.8 µg/mL (≈ 343 µM) | 250 µg/mL (≈ 946 µM) | ≥ 250 µg/mL | > 250 µg/mL | 125 µg/mL (≈ 473 µM) | > 250 µg/mL | > 250 µg/mL | > 250 µg/mL | – | > 250 µg/mL | > 250 µg/mL | 125 µg/mL (≈ 473 µM) | 125 µg/mL (≈ 473 µM) | ≥ 250 µg/mL | > 250 µg/mL | 144 to 148 °C | –
COc1ccc(C(=O)/C=C/c2ccc([N+](=O)[O-])o2)cc1 [Compound 12] | – | 250 µg/mL (≈ 915 µM) | 1.95 µg/mL (≈ 7.14 µM) | 228 µg/mL (≈ 834 µM) | 7.81 µg/mL (≈ 28.6 µM) | 125 µg/mL (≈ 457 µM) | > 250 µg/mL | 1.95 µg/mL (≈ 7.14 µM) | 250 µg/mL (≈ 915 µM) | 15.6 µg/mL (≈ 57.2 µM) | > 250 µg/mL | > 94% | 250 µg/mL (≈ 915 µM) | > 250 µg/mL | 3.9 µg/mL (≈ 14.3 µM) | 0.98 µg/mL (≈ 3.59 µM) | 62.5 µg/mL (≈ 229 µM) | 250 µg/mL (≈ 915 µM) | – | MIC90 ([1]; 96 h): 1.95 µg/mL (≈ 7.14 µM); MIC90 ([1]; Trichophyton mentagrophytes, ATCC11481, 96 h): 0.98 µg/mL (≈ 3.59 µM)
CS(=O)(=O)c1ccc(C(=O)/C=C/c2ccc([N+](=O)[O-])o2)cc1 [Compound 15, (E)-1-(4-(methylsulfonyl)phenyl)-3-(5-nitrofuran-2-yl)prop-2-en-1-one] | 7.8 µg/mL (≈ 24.3 µM) | 34.2 µg/mL (≈ 107 µM) | 15.6 µg/mL (≈ 48.6 µM) | 11.5 µg/mL (≈ 35.8 µM) | > 250 µg/mL | ≥ 250 µg/mL | > 250 µg/mL | 15.6 µg/mL (≈ 48.6 µM) | > 250 µg/mL | > 250 µg/mL | > 250 µg/mL | – | > 250 µg/mL | > 250 µg/mL | 7.81 µg/mL (≈ 24.3 µM) | 7.8 µg/mL (≈ 24.3 µM) | ≥ 250 µg/mL | > 250 µg/mL | 197 to 200 °C (dec.) | –
O=C(/C=C/c1ccc([N+](=O)[O-])o1)c1ccc(Cl)cc1Cl [Compound 16, (E)-1-(2,4-dichlorophenyl)-3-(5-nitrofuran-2-yl)prop-2-en-1-one] | 7.8 µg/mL (≈ 25 µM) | 35.6 µg/mL (≈ 114 µM) | 31.2 µg/mL (≈ 100 µM) | 29.9 µg/mL (≈ 95.8 µM) | 62.5 µg/mL (≈ 200 µM) | ≥ 250 µg/mL | > 250 µg/mL | 7.8 µg/mL (≈ 25 µM) | 250 µg/mL (≈ 801 µM) | 62.5 µg/mL (≈ 200 µM) | > 250 µg/mL | – | > 250 µg/mL | > 250 µg/mL | 1.95 µg/mL (≈ 6.25 µM) | 7.8 µg/mL (≈ 25 µM) | ≥ 250 µg/mL | > 250 µg/mL | 164 to 165 °C | fungistatic / fungicidal profile (T. rubrum (ATCC 28289) [3]; MFC versus MIC90): fungistatic profile
CN(C/C=C/C#CC(C)(C)C)Cc1cccc2ccccc12 [TRB, terbinafine] | – | – | – | – | – | – | – | – | – | – | – | – | – | – | – | – | – | – | – | MIC90 (T. rubrum ATCC MYA-4438): 0.03 µg/mL (≈ 0.103 µM)
